The values that follow come from publication PMC10888717, “Identification of Novel Non-Nucleoside Inhibitors of Zika Virus NS5 Protein Targeting MTase Activity” (International Journal of Molecular Sciences, 2024).

The target of one data set is T1, ZIKV NS5 MTase (Zika virus, UniProt A0A024B7W1).
T1 construct: KJ776791.2, aa 4–278; His6 (N); made in house; host or cells: Escherichia coli T7 Express Iq
Kind of data set: ZIKV NS5 MTase radioactive filter-binding assay (2′-O-MTase activity). The note with it: at least two experiments, read-out: IC50 (half-maximal inhibitory enzymatic concentration). Type of data set: biochemical. The method, then: Selected compounds were evaluated in enzymatic inhibition assays against both ZIKV and DENV 2′-O-MTase activity (For details, see Figure S3 in Supplementary Materials). The screening of compounds at a concentration of 50 µM highlighted a higher inhibitory activity against ZIKV MTase. We thus focused our efforts on ZIKV and determined the IC50 values against ZIKV MTase.
Expression and purification of ZIKV NS5 MTase: The coding sequence of the ZIKV NS5 MTase domain (strain H/PF/2013, GenBank accession no. KJ776791.2, aa 4–278) was synthesized by Genscript and cloned into a pQE30 vector (Qiagen, Hilden, Germany) with an N-terminal His6 tag. The protein was expressed and purified following the procedures described in Coutard et al..
Briefly, after expression in Escherichia coli T7 Express Iq (New England BioLabs) in Terrific Broth at 17 °C overnight, bacterial pellets were resuspended in lysis buffer (50 mM Tris-HCl [pH 8], 300 mM NaCl, 5% glycerol, 0.1% Triton, 10 μg/mL DNase I, 2 tablets of EDTA-free antiprotease cocktail [Roche] and 0.25 mg/mL lysozyme). Following cell lysis and clarification, the protein was purified by affinity on immobilized metal affinity chromatography (IMAC, His prep column [GE Healthcare]), followed by size exclusion chromatography (Superdex S75 HR 16/20 column [GE Healthcare]). The NS5-MTase was concentrated and stored at −20 °C after adding glycerol to a final concentration of 40%.
Filter-binding assay: The transfer of tritiated methyl from ^[3H]SAM onto RNA substrate was monitored by a filter-binding assay (FBA), performed according to the method described previously. FBA was carried out in a reaction mixture [40 mM Tris-HCl (pH 8.0), 1 mM DTT, 2 μM SAM, and 0.1 μM 3H-SAM (Perkin Elmer, Shelton, CT, USA)] in the presence of 0.7 μM synthetic ^7mGpppAC4 and ZIKV NS5 MTase (500 nM). The enzyme was first mixed with an increasing concentration of inhibitors, previously suspended in dimethyl sulfoxide (DMSO), before the addition of RNA substrate and SAM, and then incubated at 30 °C. The final DMSO concentration in reactions was 5%. Reaction mixtures were stopped after 30 min incubation by their 10-fold dilution in ice-cold water. Samples were transferred to diethylaminoethyl (DEAE) filtermat (Perkin Elmer, Shelton, CT, USA) using a Filtermat Harvester (Packard Instruments, Meriden, CT, USA). The RNA-retaining mats were washed twice with 10 mM ammonium formate pH 8.0, twice with water, and once with ethanol before drying. They were soaked with scintillation fluid (Perkin Elmer, Shelton, CT, USA), and 3H-methyl transfer to the RNA substrates was determined using a Wallac MicroBeta TriLux Liquid Scintillation Counter (Perkin Elmer, Shelton, CT, USA). For IC50 measurements, values were normalized and fitted with Prism (GraphPad software version 10.1.1) using the following equation: Y = 100/(1 + ((X/IC50) ^ Hillslope)).

Data set [1] in a line: Cytotoxicity assay (MTT) on Vero E6 cells. Type of data set: cell-based. Particulars: African green monkey; VERO E6 cells, MTT, 3 days; read-out: CC50 ± SD (half-maximal cytotoxic concentration). The protocol: Compounds characterized by the best anti-enzymatic activity were tested against ZIKV in cellular assays. VERO E6 cells were infected with ZIKV at a multiplicity of infection (M.O.I.) of 0.1, and their activities were evaluated by a plaque reduction assay three days post-infection. Ribavirin was used as a reference compound. As reported in Table 2, compound 1, identified in the first screening, was unable to inhibit viral replication up to a 100 μM concentration. […] The cytotoxicity of the series was determined on the same cell line. […] Their selectivity indexes were calculated as the ratio between CC50 and IC50 values; the results highlight their promising safety profile.
Monolayers of 2.5 × 10^4 Vero E6 cells per well were grown in flat-bottom 96-well culture plates and allowed to adhere overnight. Then, when the cell layers were confluent, the medium was removed, the wells were washed twice with PBS, treated with 100 µL of DMEM with 10 µL DMSO alone (cell positive control) or with various concentrations of anti-NS5 inhibitory compounds under study (compound final concentrations of 100, 10, 1, 0.1, and 0.01 μM), and incubated for 3 days at 37 °C in a CO2. After treatment, an MTT (3-(4,5-dimethylthiazol-2-yl)-2,5-diphenyltetrazolium bromide) kit (Roche, Milan, Italy) was used according to the supplier’s instructions, and the absorbance of each well was determined using a microplate spectrophotometer at a wavelength of 570 nm. Cytotoxicity was calculated by dividing the average optical density of treated samples by the average of DMSO-treated samples (cell positive control).

The next data set concerns the target DENV MTase. The experiment in a line: DENV MTase enzymatic inhibition assay. Type of data set: biochemical, Dengue virus. Particulars: read-out: IC50 against DENV MTase. The source says:
Firstly, a pharmacophoric model was developed taking into consideration the most populated interactions (Figure 1C). The pharmacophore was used to perform a first screening, choosing molecules matching the pharmacophore features representing the interactions of the SAM adenine group and at least one of the two groups of features representing the interaction of SAM methionine moieties, with the aim of identifying compounds able to form interactions within both the adenine and the methionine subpockets of the SAM-binding site. The obtained results were then subjected to docking analysis using Glide XP, Glide SP, and GOLD (using the GoldScore fitness function). At the end of each docking procedure, a post-docking filter was applied to check whether the desired pharmacophoric interactions were maintained in the predicted binding modes of the docked compounds. Only the ligands for which a common binding mode matching the desired pharmacophore features was predicted by all the docking software were retained and then subjected to clustering and visual inspection. […]
Selected compounds were evaluated in enzymatic inhibition assays against both ZIKV and DENV 2′-O-MTase activity (For details, see Figure S3 in Supplementary Materials). […] We thus focused our efforts on ZIKV and determined the IC50 values against ZIKV MTase.

A further data set concerns ZIKV. Kind of data set: ZIKV inhibitory viral plaque reduction assay in Vero E6 cells. Type of data set: cell-based, Zika virus. The note with it: Zika virus, Vero C1008, read-out: IC50 ± SD (half-maximal inhibitory concentration, ZIKV plaque reduction). On the technique in general: Plaque reduction counts the foci of infection that form in a cell layer.

T1 sequence (A0A024B7W1 2524-2798): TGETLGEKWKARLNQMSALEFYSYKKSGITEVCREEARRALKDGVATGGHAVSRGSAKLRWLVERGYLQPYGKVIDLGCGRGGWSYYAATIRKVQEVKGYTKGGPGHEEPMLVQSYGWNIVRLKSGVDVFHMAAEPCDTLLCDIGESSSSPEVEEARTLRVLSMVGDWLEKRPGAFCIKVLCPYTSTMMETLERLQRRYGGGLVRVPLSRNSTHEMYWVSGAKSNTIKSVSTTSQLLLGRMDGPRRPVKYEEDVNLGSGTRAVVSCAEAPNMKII

With `O=C(Nc1ccc2c(c1)C(=O)NC2=O)c1cc2cc([N+](=O)[O-])ccc2s1` [Compound 1], the IC50 is 53 µM on ZIKV NS5 MTase, 69 µM at DENV MTase and more than 100 µM in the data set on ZIKV. The CC50 at 3 days in data set [1] is more than 100 µM.
